22 compounds from patent US10669284B2, “Fused thiazolopyrimidine derivatives as MNKS inhibitors” (LIFEARC, priority 2015, dated 2020) can be followed below.

Assay [1] has as its system phosphorylation of eIF4E at ser209 in MV4.11 cell line. Put plainly: MNK cellular activity phospho-eIF4E detection assay (Alphascreen Surefire). The format is cell-based. The settings on record: Homo sapiens; MV4.11 cell line, phospho-eIF4E (ser209) Alphascreen Surefire; read-out: P(IC50) elF4E (converted). A digest of the protocol: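 AlphaScreen SureFire sandwich-immunoassay readout of phospho-eIF4E Ser209 in lysed MV4.11 cells; acceptor then donor beads, each 1.5 hr at room temperature. Signal normalised to untreated DMSO-only controls; duplicate curves, values averaged over at least 2 independent experiments.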

Another assay concerns the target T1, Full-length human MNK2 (Homo sapiens, UniProt Q9HBH9, T379D).
T1 construct: GST (N); purchased Carna Biosciences 02-146; host or cells: baculovirus expression system
Kind of assay: MNK2 biochemical IC50 assay (Caliper Mobility Shift Assay). As to conditions: read-out: P(IC50) MNK2 (converted).

In the next assay the target is T2, Full-length human MNK1 (Homo sapiens, UniProt Q9BUB5, T385D).
T2 construct: GST (N); purchased Carna Biosciences 02-145; host or cells: baculovirus expression system
Kind of assay: MNK1 biochemical IC50 assay (Caliper Mobility Shift Assay). As to conditions: read-out: P(IC50) MNK1 (converted).

T1 sequence (Q9HBH9 whole entry T379D): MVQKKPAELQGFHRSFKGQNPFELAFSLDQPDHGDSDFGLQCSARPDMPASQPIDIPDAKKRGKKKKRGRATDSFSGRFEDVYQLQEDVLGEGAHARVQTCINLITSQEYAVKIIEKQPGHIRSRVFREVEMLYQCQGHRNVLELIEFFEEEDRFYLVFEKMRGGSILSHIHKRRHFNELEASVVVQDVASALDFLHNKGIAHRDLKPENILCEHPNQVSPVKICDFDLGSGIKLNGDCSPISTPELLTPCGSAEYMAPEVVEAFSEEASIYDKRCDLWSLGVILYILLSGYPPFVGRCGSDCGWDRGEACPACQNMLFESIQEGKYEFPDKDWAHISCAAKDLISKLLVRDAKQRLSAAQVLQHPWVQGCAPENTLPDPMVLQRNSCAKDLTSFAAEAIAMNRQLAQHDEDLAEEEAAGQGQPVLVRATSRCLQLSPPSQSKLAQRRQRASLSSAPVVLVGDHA
T2 sequence (Q9BUB5 1-424 isoform Q9BUB5-2 T344D): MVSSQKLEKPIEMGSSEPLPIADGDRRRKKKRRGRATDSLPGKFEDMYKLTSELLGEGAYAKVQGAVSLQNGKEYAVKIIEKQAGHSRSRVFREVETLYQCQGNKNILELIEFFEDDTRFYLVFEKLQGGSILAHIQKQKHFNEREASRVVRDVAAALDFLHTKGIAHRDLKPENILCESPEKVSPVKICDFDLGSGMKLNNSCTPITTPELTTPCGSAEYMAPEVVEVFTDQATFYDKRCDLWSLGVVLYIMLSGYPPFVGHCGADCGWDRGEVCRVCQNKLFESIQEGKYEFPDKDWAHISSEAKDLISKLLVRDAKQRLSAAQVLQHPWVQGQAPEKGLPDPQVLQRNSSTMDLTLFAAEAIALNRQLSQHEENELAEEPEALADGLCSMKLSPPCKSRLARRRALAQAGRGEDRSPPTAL

Consider `CNCCNC(=O)c1nc2c(N3CCc4cc(F)ccc43)ncnc2s1` [Example 71, 7-(5-fluoroindolin-1-yl)-N-[2-(methylamino)ethyl]thiazolo[5,4-d]pyrimidine-2-carboxamide], for which the IC50 (as a rule, the point on the concentration scale where inhibition reaches its midpoint) in assay [1] is 15.8 nM; at Full-length human MNK2 it was 6.31 nM; on Full-length human MNK1 it was 10 nM.
On the same counts, the results for `CC1(CCO)CN(c2ncnc3sc(C(=O)NCC4CCNCC4)nc23)c2ccccc21` (stereo not drawn) [Example 144] are 20 nM, 15.8 nM and 12.6 nM.
For the compound `Cc1ccc2c(c1)CCN2c1ncnc2sc(C(=O)NCC3CCNCC3)nc12` [Example 170, 7-(5-Methylindolin-1-yl)-N-(4-piperidylmethyl)thiazolo[5,4-d]pyrimidine-2-carboxamide], the IC50 in assay [1] is 79.4 nM; at Full-length human MNK2, 25.1 nM; on Full-length human MNK1, 63.1 nM.
For `O=C(NCCN1CCCC1)c1nc2c(N3CCc4cc(F)ccc43)ncnc2s1` [Example 74, 7-(5-fluoroindolin-1-yl)-N-(2-pyrrolidin-1-ylethyl)thiazolo[5,4-d]pyrimidine-2-carboxamide], the IC50 was 20 nM in assay [1], 5.01 nM at Full-length human MNK2 and 6.31 nM at Full-length human MNK1.
In the case of `N#Cc1ccc2c(c1)CCN2c1ncnc2sc(C(=O)NC3CCOCC3)nc12` [Example 42, 7-(5-cyano-2,3-dihydro-1H-indol-1-yl)-N-(tetrahydro-2H-pyran-4-yl)[1,3]thiazolo[5,4-d]pyrimidine-2-carboxamide], the IC50 in assay [1] is 31.6 nM; at Full-length human MNK2, 20 nM; on Full-length human MNK1, 31.6 nM.
In the case of `CN1CCC(CNC(=O)c2nc3c(N4CCc5cccc(F)c54)ncnc3s2)CC1` [Example 93, 7-(7-fluoroindolin-1-yl)-N-[(1-methyl-4-piperidyl)methyl]thiazolo [5,4-d]pyrimidine-2-carboxamide], the IC50 in assay [1] is 251 nM; on Full-length human MNK2 it was 158 nM; on Full-length human MNK1 it was 200 nM.
For `CC1(C)CN(c2ncnc3sc(C(=O)NCCCO)nc23)c2ccccc21` [Example 163], the IC50 is 5.01 nM in assay [1], 3.98 nM on Full-length human MNK2 and 10 nM at Full-length human MNK1.
Turning to `CNC(=O)c1nc2c(N3CCc4cc(F)ccc43)ncnc2s1` [Example 69, 7-(5-fluoroindolin-1-yl)-N-methyl-thiazolo[5,4-d]pyrimidine-2-carboxamide], the results for the half-maximal inhibitory concentration (IC50) (in assay [1]; on Full-length human MNK2; at Full-length human MNK1) were 6.31 nM, 5.01 nM and 6.31 nM, respectively.
Turning to `CN(C)CCCNC(=O)c1nc2c(Nc3cccc4c3OCC4)ncnc2s1` [Example 26, 7-(2,3-Dihydrobenzofuran-7-ylamino)-N-[3-(dimethylamino)propyl]thiazolo[5,4-d]pyrimidine-2-carboxamide], the IC50 is 1000 nM in assay [1], 1580 nM on Full-length human MNK2 and 1580 nM on Full-length human MNK1.
With `CC1Cc2ccccc2N1c1ncnc2sc(C(=O)NC3CCOCC3)nc12` (stereo not drawn) [Example 122, 7-(2-Methylindolin-1-yl)-N-tetrahydropyran-4-yl-thiazolo[5,4-d]pyrimidine-2-carboxamide], the IC50 was 50.1 nM in assay [1], 31.6 nM at Full-length human MNK2 and 39.8 nM on Full-length human MNK1.
Take `CC(C)[C@@H](CO)NC(=O)c1nc2c(N3CCc4ccccc43)ncnc2s1` [Example 101, N-[(1S)-1-(hydroxymethyl)-2-methyl-propyl]-7-indolin-1-yl-thiazolo[5,4-d]pyrimidine-2-carboxamide]: the half-inhibitory concentration (IC50) in assay [1] is 31.6 nM; at Full-length human MNK2, 12.6 nM; on Full-length human MNK1 it was 10 nM.
`CNCCCNC(=O)c1nc2c(Nc3ccc(F)cc3OC(C)C)ncnc2s1` [Example 29, 7-{[4-Fluoro-2-(propan-2-yloxy)phenyl]amino}-N-[3-(methylamino)propyl][1,3]thiazolo[5,4-d]pyrimidine-2-carboxamide]: the IC50 in assay [1] is 39.8 nM; on Full-length human MNK2 it was 50.1 nM; at Full-length human MNK1, 63.1 nM.
On the same counts, the results for `C[C@H]1Cc2ccccc2N1c1ncnc2sc(C(=O)NC3CCOCC3)nc12` [Example 133, 7-[(2S)-2-methylindolin-1-yl]-N-tetrahydropyran-4-yl-thiazolo[5,4-d]pyrimidine-2-carboxamide] are 50.1 nM, 39.8 nM and 79.4 nM.
In the case of `O=C(NCC1CCNCC1)c1nc2c(N3CCc4ccccc43)ncnc2s1` [Example 94, 7-Indolin-1-yl-N-(4-piperidylmethyl)thiazolo[5,4-d]pyrimidine-2-carboxamide], the IC50 in assay [1] is 7.94 nM; at Full-length human MNK2 it was 3.98 nM; at Full-length human MNK1, 6.31 nM.
`O=C(NC1CCOCC1)c1nc2c(N3CCc4cc(O)ccc43)ncnc2s1` [Example 114, 7-(5-hydroxyindolin-1-yl)-N-tetrahydropyran-4-yl-thiazolo[5,4-d]pyrimidine-2-carboxamide]: the IC50 in assay [1] was 1.58 nM; at Full-length human MNK2, 2.51 nM; on Full-length human MNK1, 2.51 nM.
As for `C[C@@H]1Cc2ccccc2N1c1ncnc2sc(C(=O)NCC3CCNCC3)nc12` [Example 127, (R)-7-(2-Methylindolin-1-yl)-N-(piperidin-4-ylmethyl)thiazolo[5,4-d]pyrimidine-2-carboxamide], the IC50 in assay [1] was 15.8 nM; on Full-length human MNK2 it was 15.8 nM; at Full-length human MNK1 it was 12.6 nM.
Consider `CN1CCN(CCC2CN(c3ncnc4sc(C(=O)NC5CCOCC5)nc34)c3ccccc32)CC1` (stereo not drawn) [Example 155, 7-[3-[2-(4-methylpiperazin-1-yl)ethyl]indolin-1-yl]-N-tetrahydropyran-4-yl-thiazolo[5,4-d]pyrimidine-2-carboxamide], for which the IC50 in assay [1] was 50.1 nM; at Full-length human MNK2 it was 79.4 nM; on Full-length human MNK1 it was 126 nM.
As for `CNCCNC(=O)c1nc2c(Nc3ccc(F)cc3OC(C)C)ncnc2s1` [Example 30, 7-{[4-Fluoro-2-(propan-2-yloxy)phenyl]amino}-N-[2-(methylamino)ethyl][1,3]thiazolo[5,4-d]pyrimidine-2-carboxamide], the figures for the 50% inhibitory concentration (IC50) (in assay [1]; at Full-length human MNK2; at Full-length human MNK1) were 100 nM, 126 nM and 200 nM, respectively.
As for `Nc1nc2c(N3CCc4cc(F)ccc43)ncnc2s1` [Example 83, 7-(5-Fluoroindolin-1-yl)thiazolo[5,4-d]pyrimidin-2-amine], the results for the IC50 (in assay [1]; at Full-length human MNK2; at Full-length human MNK1) were 126 nM, 39.8 nM and 31.6 nM, respectively.
As for `O=C(NCC1CCNCC1)c1nc2c(N3CCc4cc(C(F)(F)F)ccc43)ncnc2s1` [Example 145], the IC50 in assay [1] is 501 nM; on Full-length human MNK2, 100 nM; on Full-length human MNK1 it was 126 nM.
Consider `CNCC1CN(c2ncnc3sc(C(=O)NC4CCOCC4)nc23)c2ccccc21` (stereo not drawn) [Example 120, 7-[3-(Methylaminomethyl)indolin-1-yl]-N-tetrahydropyran-4-yl-thiazolo[5,4-d]pyrimidine-2-carboxamide], for which the IC50 is 126 nM in assay [1], 31.6 nM at Full-length human MNK2 and 50.1 nM at Full-length human MNK1.
`CC(C)Oc1cc(F)ccc1Nc1ncnc2sc(C(=O)N3CCC(CN(C)C)CC3)nc12` [Example 35, {4-[(dimethylamino)methyl]piperidin-1-yl}(7-{[4-fluoro-2-(propan-2-yloxy)phenyl]amino}[1,3]thiazolo[5,4-d]pyrimidin-2-yl)methanone]: the IC50 in assay [1] is 316 nM; at Full-length human MNK2 it was 200 nM; on Full-length human MNK1, 158 nM.
